Reference: patent US20250283052A1, “THERAPEUTIC NK CELL POPULATIONS” (Gamida Cell Ltd., priority 2021, published 2025)

Legend:
[1] = system: CD62L; assay: CD62L staining 2 hours post-thaw (FACS); format: cell-based; conditions: culturing in 7 mM NAM; 2 hours post-thaw (FIG. 2)
Experimental: The cells were thawed, and 2 hours post-thaw were sampled for staining against CD62L and analyzed by FACS. Assays for adhesion and migration molecules such as CD62L, CXCR-4, CD49e and the like, important for homing/engraftment and retention of cells in transplantation, are well known in the art. CD62L expression in a cell can be assayed, for example, by flow cytometry, immunodetection, quantitative cDNA amplification, hybridization and the like. In one embodiment, CD62L expression is detected in different populations of NK cells by exposure of the cells to a fluorescent-tagged specific anti-human CD62L monoclonal antibody [e.g., CD62L PE, Cat. No. 304806 from BioLegend (San Diego, CA, USA)], and sorting of the cells by fluorescent activated cell sorting (FACS). After 2 weeks in culture according to the methods of the invention, a modified procedure using inactivated autologous CD3+ cells as feeder, supplemented with OKT3 and NAM, led to an improved fold expansion, which increased the total number of viable cells obtained at harvest. The functionality of the cells in killing and ADCC was assessed by combination of NK cells with target cells BL2 (Burkitt lymphoma cell line)—at different ratios. […]

[2] = system: CD200R; assay: CD200R immunophenotyping of expanded NK cells (FACS); format: cell-based; conditions: 2 weeks culture without NAM or with 2.5, 5 or 7 mM NAM (FIG. 3)
Experimental: Cells were cultured for 2 weeks without NAM and with 2.5 mM, 5 mM NAM or 7 mM NAM. Samples for staining against CD200R were analyzed by FACS.
The immune checkpoint receptors, CD200R and Programmed Death receptor-1 (PD-1), are exploited by tumor cells which overexpress their ligands to suppress lymphocytes anti-tumor activity. The effect of expansion with nicotinamide (NAM) on expression of immune checkpoint receptors in NK cells was assessed.

In the case of `NC(=O)c1cccnc1` [NAM, nicotinamide], the “expression of CD62L” value [1] is reported as “increased expression of CD62L” and the “expression of CD200R on expanded NK cells” value [2] is reported as “down regulated”.
